# Results reported in ChEMBL document CHEMBL5360641, “4'-Ethynyl-2'-deoxy-2'-β-fluoro-2-fluoroadenosine: A Highly Potent and Orally Available Clinical Candidate for the Treatment of HIV-1 Infection” (J Med Chem, 2023).
# Experiments:
# [1] = tested on: Human immunodeficiency virus 1; test: Antiviral activity against HIV1 VSV-G pseudotyped virus infected in human HEK293T cells assessed as inhibition of viral growth preincubated for 3 hrs followed by washout and further incubated with compound for 72 hrs by luciferase assay; type: functional, organism-based; settings: Human immunodeficiency virus 1, HEK-293T
# [2] = Selectivity index, ratio of CC50 for cytotoxicity against HEK293T cells assessed as reduction in cell viability by MTT assay to EC50 for antiviral activity against HIV1 VSV-G pseudotyped virus infected in human HEK293T cells assessed as inhibition of viral growth; type: toxicity, cell-based; settings: read-out: Ratio CC50/EC50
# [3] = Cytotoxicity against HEK293T cells assessed as reduction in cell viability by MTT assay; type: toxicity, cell-based, HEK-293T; settings: human
compound,measurement,setting,value
C#C[C@]1(CO)O[C@@H](n2cnc3c(N)ncnc32)[C@@H](F)[C@@H]1O,EC50,[1],0.0023 µM
same,selectivity ratio,[2],24600
same,CC50,[3],56.5 µM
